Data from patent US9040506B2, “7,11-methanocycloocta [B] quinoline derivative as highly functionalizable acetylcholinesterase inhibitors” (priority 2010, dated 2015).
Counter-ions that a name gives are not always drawn. Like-named read-outs stand apart in the source and are kept apart here.

Columns and labels:
rh-AChE = rh-AChE (Homo sapiens, UniProt P22303); experiment: biochemical
rh-BuChE = rh-BuChE (Homo sapiens, UniProt P06276); experiment: IC50 rh-BuChE; format: biochemical
Sequence of rh-BuChE (P06276 29-602): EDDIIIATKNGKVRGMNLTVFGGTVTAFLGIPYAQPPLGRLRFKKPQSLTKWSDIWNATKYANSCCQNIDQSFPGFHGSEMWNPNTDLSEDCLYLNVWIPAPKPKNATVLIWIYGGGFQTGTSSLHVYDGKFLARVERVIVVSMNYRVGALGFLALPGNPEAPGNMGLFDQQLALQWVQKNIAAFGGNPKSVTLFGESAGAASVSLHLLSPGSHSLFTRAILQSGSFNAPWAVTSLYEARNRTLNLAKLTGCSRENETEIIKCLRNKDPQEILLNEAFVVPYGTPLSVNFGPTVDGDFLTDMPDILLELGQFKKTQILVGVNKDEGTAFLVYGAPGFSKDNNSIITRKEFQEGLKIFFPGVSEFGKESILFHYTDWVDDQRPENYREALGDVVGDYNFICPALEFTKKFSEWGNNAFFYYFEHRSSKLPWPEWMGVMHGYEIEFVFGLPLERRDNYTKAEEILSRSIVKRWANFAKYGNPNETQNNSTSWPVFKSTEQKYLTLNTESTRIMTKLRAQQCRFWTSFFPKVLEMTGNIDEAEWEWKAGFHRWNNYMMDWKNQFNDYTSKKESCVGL

Sequence of rh-AChE (P22303 32-614): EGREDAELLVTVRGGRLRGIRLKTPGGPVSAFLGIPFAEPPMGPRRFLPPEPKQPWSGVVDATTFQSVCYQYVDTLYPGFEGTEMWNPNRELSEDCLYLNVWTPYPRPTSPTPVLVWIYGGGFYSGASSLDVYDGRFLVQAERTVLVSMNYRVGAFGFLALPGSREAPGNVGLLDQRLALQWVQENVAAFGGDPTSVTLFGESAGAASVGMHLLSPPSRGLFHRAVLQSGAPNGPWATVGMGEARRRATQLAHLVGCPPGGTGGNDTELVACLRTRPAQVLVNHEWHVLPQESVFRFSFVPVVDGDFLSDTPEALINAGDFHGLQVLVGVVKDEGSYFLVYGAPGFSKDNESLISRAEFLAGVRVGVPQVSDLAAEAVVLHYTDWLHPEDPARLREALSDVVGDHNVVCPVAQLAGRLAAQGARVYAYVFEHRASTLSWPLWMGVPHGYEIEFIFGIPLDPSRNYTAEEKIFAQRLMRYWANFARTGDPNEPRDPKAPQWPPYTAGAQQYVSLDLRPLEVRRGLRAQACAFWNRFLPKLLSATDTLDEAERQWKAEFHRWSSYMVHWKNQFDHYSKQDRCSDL

SMILES | IC50 (rh-AChE; read-out: IC50 rh-AChE) [µM] | IC50 (rh-BuChE; read-out: IC50 rh-BuChE) [µM] | IC50 (rh-BuChE) [µM] | IC50 (rh-AChE) [µM]
COC(=O)c1cn(CCC2=CC3Cc4nc5cc(Cl)ccc5c(N)c4C(C2)C3)nn1 (centres unmarked) [HUP 22, Methyl 1-[2-(12-amino-3-chloro-6,7,10,11-tetrahydro-7,11-methanocycloocta[b]quinolin-9-yl)ethyl]-1H-1,2,3-triazole-4-carboxylate] | 0.13 ± 0.015 | – | – | –
N#CCCC1=CC2Cc3nc4cc(Cl)ccc4c(N)c3C(C1)C2 (centres unmarked) [HUP 8, 3-(12-Amino-3-chloro-6,7,10,11-tetrahydro-7,11-methanocycloocta[b]quinolin-9-yl)propanenitrile Trifluoroacetic Acid] | 0.00315 ± 0.00042 | 0.514 ± 0.058 | – | –
Nc1c2c(nc3cc(Cl)ccc13)CC1C=C(CCNO)CC2C1 (centres unmarked) [HUP 15, 3-Chloro-9-[2-(hydroxyamino)ethyl]-6,7,10,11-tetrahydro-7,11-methano cycloocta[b]quinolin-12-amine Ditrifluoroacetic Acid] | 0.0185 ± 0.0022 | – | – | –
CS(=O)(=O)OCCC1=CC2Cc3nc4ccccc4c(N)c3C(C1)C2 (centres unmarked) [HUP 39, 2-(12-Amino-6,7,10,11-tetrahydro-7,11-methanocycloocta[b]quinolin-9-yl) Ethyl Methanesulfonate] | 0.149 ± 0.006 | 0.171 ± 0.004 | – | –
CS(=O)(=O)OCCC1=CC2Cc3nc4cc(Cl)ccc4c(N)c3C(C1)C2 (centres unmarked) [HUP 13, 2-(12-Amino-3-chloro-6,7,10,11-tetrahydro-7,11-methanocycloocta[b]quinolin-9-yl) Ethyl Methanesulfonate] | 0.0085 ± 0.0011 | 0.415 ± 0.097 | – | –
C[N+](C)(C)CCC1=CC2Cc3nc4cc(Cl)ccc4c(N)c3C(C1)C2 (centres unmarked) [HUP 25, 2-(12-Amino-3-chloro-6,7,10,11-tetrahydro-7,11-methanocycloocta[b]quinolin-9-yl)-N,N,N-trimethylethanaminium Ditrifluoroacetic Acid] | 0.262 ± 0.022 | – | – | –
COc1cc2c(cc1OC)C(c1ccccc1)N(CCCc1cn(CCCCC3=CC4Cc5nc6cc(Cl)ccc6c(N)c5C(C3)C4)nn1)CC2 (centres unmarked) [HUP32-PIQ3, 3-Chloro-9-(4-{4-[3-(6,7-dimethoxy-1-phenyl-3,4-dihydroisoquinolin-2(1H)-yl)propyl]-1H-1,2,3-triazol-1-yl}butyl)-6,7,10,11-tetrahydro-7,11-methanocycloocta[b]quinolin-12-amine Ditrifluoroacetic Acid] | 0.00061 ± 0.0001 | 0.0114 ± 0.0006 | – | –
COc1cc2c(cc1OC)C(c1ccccc1)N(Cc1cn(CCCCC3=CC4Cc5nc6cc(Cl)ccc6c(N)c5C(C3)C4)nn1)CC2 (centres unmarked) [HUP32-PIQ1, 3-Chloro-9-(4-{4-[(6,7-dimethoxy-1-phenyl-3,4-dihydroisoquinolin-2(1H)-yl)methyl]-1H-1,2,3-triazol-1-yl}butyl)-6,7,10,11-tetrahydro-7,11-methanocycloocta[b]quinolin-12-amine Ditrifluoroacetic Acid] | 0.00331 ± 0.0002 | 0.0206 ± 0.0002 | – | –
COc1cc2c(cc1OC)C(c1ccccc1)N(CCCCc1cn(CCCCC3=CC4Cc5nc6cc(Cl)ccc6c(N)c5C(C3)C4)nn1)CC2 (centres unmarked) [HUP32-PIQ4, 3-Chloro-9-(4-{4-[4-(6,7-dimethoxy-1-phenyl-3,4-dihydroisoquinolin-2(1H)-yl)butyl]-1H-1,2,3-triazol-1-yl}butyl)-6,7,10,11-tetrahydro-7,11-methanocycloocta[b]quinolin-12-amine Ditrifluoroacetic Acid] | 0.00078 ± 0.0001 | 0.0095 ± 0.0006 | – | –
CC(C)(C)OC(=O)ON(CCC1=CC2Cc3nc4cc(Cl)ccc4c(N)c3C(C1)C2)C(=O)OC(C)(C)C (centres unmarked) [HUP 16, Tert-butyl[2-(12-amino-3-chloro-6,7,10,11-tetrahydro-7,11-methanocycloocta[b]quinolin-9-yl)ethyl][(tert-butoxycarbonyl)oxy]carbamate] | 0.0148 ± 0.0032 | 0.421 ± 0.072 | – | –
Nc1c2c(nc3cc(Cl)ccc13)CC1C=C(CCF)CC2C1 (centres unmarked) [HUP 10, 3-Chloro-9-(2-fluoroethyl)-6,7,10,11-tetrahydro-7,11-methanocycloocta[b]quinolin-12-amine] | 0.00416 ± 0.00079 | 0.522 ± 0.12 | – | –
Nc1c2c(nc3cc(Cl)ccc13)CC1C=C(CCI)CC2C1 (centres unmarked) [HUP 7, 3-Chloro-9-(2-iodoethyl)-6,7,10,11-tetrahydro-7,11-methanocycloocta[b]quinolin-12-amine] | 0.0027 ± 0.00082 | 0.141 ± 0.007 | – | –
Nc1c2c(nc3cc(Cl)ccc13)CC1C=C(CCn3cc(CO)nn3)CC2C1 (centres unmarked) [HUP 23, {1-[2-(12-Amino-3-chloro-6,7,10,11-tetrahydro-7,11-methanocycloocta[b]quinolin-9-yl)ethyl]-1H-1,2,3-triazol-4-yl}methanol Trifluoroacetic Acid] | 0.21 ± 0.028 | – | – | –
CN(C)CCC1=CC2Cc3nc4cc(Cl)ccc4c(N)c3C(C1)C2 (centres unmarked) [HUP 21, 3-Chloro-9-[2-(dimethylamino)ethyl]-6,7,10,11-tetrahydro-7,11-methano cycloocta[b]quinolin-12-amine Ditrifluoroacetic Acid] | 0.097 ± 0.01 | – | 2.91 | –
NNCCC1=CC2Cc3nc4cc(Cl)ccc4c(N)c3C(C1)C2 (centres unmarked) [HUP 14, 3-Chloro-9-(2-hydrazinoethyl)-6,7,10,11-tetrahydro-7,11-methanocyclo octa[b]quinolin-12-amine Ditrifluoroacetic Acid] | 0.0095 ± 0.0027 | – | 0.668 ± 0.11 | –
[N-]=[N+]=NCCC1=CC2Cc3nc4cc(Cl)ccc4c(N)c3C(C1)C2 (centres unmarked) [HUP 12, 9-(2-Azidoethyl)-3-chloro-6,7,10,11-tetrahydro-7,11-methanocycloocta[b]quinolin-12-amine] | 0.00556 ± 0.00082 | 0.522 ± 0.12 | – | –
NC(=O)CC1=CC2Cc3nc4cc(Cl)ccc4c(N)c3C(C1)C2 (centres unmarked) [HUP 20, 2-(12-Amino-3-chloro-6,7,10,11-tetrahydro-7,11-methanocycloocta[b]quinolin-9-yl)acetamide Trifluoroacetic Acid] | 0.0293 ± 0.0037 | – | – | –
NC(=O)OCCC1=CC2Cc3nc4cc(Cl)ccc4c(N)c3C(C1)C2 (centres unmarked) [HUP 17, 2-(12-Amino-3-chloro-6,7,10,11-tetrahydro-7,11-methanocycloocta[b]quinolin-9-yl)ethyl Carbamate Trifluoroacetic Acid] | 0.0185 ± 0.0022 | 0.413 ± 0.04 | – | –
CN(C)C(=O)CC1=CC2Cc3nc4cc(Cl)ccc4c(N)c3C(C1)C2 (centres unmarked) [HUP 19, 2-(12-Amino-3-chloro-6,7,10,11-tetrahydro-7,11-methanocycloocta[b]quinolin-9-yl)-N,N-dimethylacetamide Trifluoroacetic Acid] | 0.0263 ± 0.0017 | 2.76 | – | –
C=C1c2nc3cc(Cl)ccc3c(N)c2C2CC(CCCCO)=CC1C2 (centres unmarked) [HUP 37, 4-(12-Amino-3-chloro-6-methylene-6,7,10,11-tetrahydro-7,11-methanocycloocta[b]quinolin-9-yl)butan-1-ol Trifluoroacetic Acid] | 0.256 ± 0.034 | – | – | –
Nc1c2c(nc3ccccc13)CC1C=C(CCCCn3cc(CO)nn3)CC2C1 (centres unmarked) [HUP 38, {1-[4-(12-Amino-6,7,10,11-tetrahydro-7,11-methanocycloocta[b]quinolin-9-yl)butyl]-1H-1,2,3-triazol-4-yl}methanol Trifluoroacetic Acid] | 0.0941 ± 0.0028 | 0.357 ± 0.016 | – | –
C=C1c2nc3cc(Cl)ccc3c(N)c2C2CC(CCCC(=O)OCC)=CC1C2 (centres unmarked) [HUP 36, Ethyl 4-(12-Amino-3-chloro-6-methylene-6,7,10,11-tetrahydro-7,11-methanocycloocta[b]quinolin-9-yl)butanoate] | 0.0906 ± 0.0084 | – | – | –
Nc1c2c(nc3cc(Cl)ccc13)CC1C=C(CC(=O)O)CC2C1 (centres unmarked) [HUP 11, 12-Amino-3-chloro-9-carboxymethyl-6,7,10,11-tetrahydro-7,11 methanocycloocta[b]quinoline Hydrochloride] | – | – | – | 0.0053 ± 0.0011
